Experimental data as given in paper PMC7072329, “Discovery of Kynurenines Containing Oligopeptides as Potent Opioid Receptor Agonists” (Biomolecules, 2020).
Where a SMILES comes first, the peptide text is derived from it. [ ]: non-standard residue; d: D form. Kyn = Nc1ccccc1C(=O)C[C@H](N)C(=O)O

Legend:
CD-1 male mice [1] = test: formalin test; type: in vivo; conditions: s.c. in hind paw, 100 μg/20 μL, 15 min before formalin
Method: (§1) In our experiments, we used CD-1 male mice (Harlan, Italy, 25–30 g) maintained in colony, housed in cages (7 mice per cage) under standard light/dark cycle (from 7:00 a.m. to 7:00 p.m.), temperature (21 ± 1 °C) and relative humidity (60% ± 10%) for at least 1 week. Food and water were available ad libitum. The Service for Biotechnology and Animal Welfare of the Istituto Superiore di Sanità and the Italian Ministry of Health authorized the experimental protocol according to Legislative Decree 26/14.
DMSO was purchased from Merck (Rome, Italy). Peptides solutions were freshly prepared using saline containing 0.9% NaCl and DMSO in the ratio DMSO/saline 1:5 v/v every experimental day. These solutions were injected at a volume of 10 μL/mouse for intracerebroventricular (i.c.v.) administrations or at a volume of 20 μL/mouse for subcutaneous administrations.
In the formalin test, the injection of a dilute solution of formalin (1%, 20 μL/paw) into the dorsal surface of the mouse hind paw evoked biphasic nociceptive behavioral responses, such as licking, biting the injected paw, or both, occurring from 0 to 10 min after formalin injection (the early phase) and a prolonged phase, occurring from 15 to 40 min (the late phase). Before the test, mice were individually placed in a Plexiglas observation cage (30 × 14 × 12 cm) for one hour, to acclimatize to the testing environment. The total time the animal spent licking or biting its paw during the early and late phase of formalin-induced nociception was recorded.
Experimental data were expressed as mean ± s.e.m. In the tail flick test, significant differences among the groups were evaluated with two-way ANOVA followed by Sidak’s multiple comparisons test. Formalin test data were analyzed by using one-way ANOVA, followed by Holm–Sidak’s multiple comparisons test. […] Statistical significance was set at p < 0.05. The data and statistical analysis comply with the recommendations on experimental design and analysis in pharmacology.
Early phase represents the formalin-induced nociceptive behavior recorded from 0 to 10 min after formalin injection; late phase is for the formalin-induced nociceptive behavior recorded from 15 to 40 min after formalin injection. V is for vehicle-treated animals. Statistical analysis: one-way ANOVA followed by Holm–Sidak’s multiple comparisons test. ** is for p < 0.01 and *** is for p < 0.001 vs. V. n = 7.

NMDA receptor = test: [3H]MK-801 competition binding, rat brain membrane; conditions: read-out: Ki + S.E.M., displacement of [3H]MK-801
CD-1 male mice [2] = test: tail flick test; type: in vivo; conditions: i.c.v., 10 μg/10 μL, 15 to 120 min
Method: as §1
DMSO was purchased from Merck (Rome, Italy). Peptides solutions were freshly prepared using saline containing 0.9% NaCl and DMSO in the ratio DMSO/saline 1:5 v/v every experimental day. […]
The tail flick latency was obtained using a commercial unit (Ugo Basile, Gemonio, Italy), consisting of an infrared radiant light source (100 W, 15 V bulb) focused onto a photocell utilizing an aluminum parabolic mirror. […] Radiant heat was focused 3–4 cm from the tip of the tail, and the latency (s) of the tail withdrawal to the thermal stimulus was recorded. […] The baseline latency was calculated as mean of three readings recorded before testing at intervals of 15 min and the time course of latency determined at 15, 30, 45, 60, 90, and 120 min after treatment. […]
Experimental data were expressed as mean ± s.e.m. […]

In the case of `C[C@@H](NC(=O)[C@@H](N)Cc1ccc(O)cc1)C(=O)NCC(=O)N[C@@H](Cc1ccccc1)C(=O)N[C@@H](CC(=O)c1ccccc1N)C(N)=O` [Peptide K6] (H-Y[dA]GF[Kyn]-NH2), the “formalin-induced nociceptive behavior, early phase” value (CD-1 male mice [1]; 0 to 10 min) is reported as “able to reduce the nociceptive response to formalin in the early phase”, the “formalin-induced nociceptive behavior, late phase” value (CD-1 male mice [1]; 15 to 40 min) is reported as “light but not significant reduction” and the Ki (NMDA receptor) is reported as > 10 µM. The “effect on time of response to thermal nociceptive stimuli (tail flick)” value (CD-1 male mice [2]) was “greatly increase the time of response to thermal nociceptive stimuli”.
